The values that follow come from US20230364194A1, “GLP-1R/GCGR Dual Target Agonist Polypeptide Derivative for Treatment of Hepatic Fibrosis Associated with Viral Hepatitis” (Shenzhen Turier Biotech. Co., Ltd., priority 2020, published 2023).

Assay [1] concerns HBV-infected humanized mouse liver. Put plainly: Hepatic fibrosis of HBV-infected humanized mouse (hepatitis virus-infected humanized mouse fibrosis model). Type of assay: in vivo. The settings on record: 40 ug/Kg, intraperitoneal injection, once every other day for 3 weeks; for Accumulation of collagen fibers (FG/SR staining of liver) / Hepatic fibrosis and inflammation level (FG/SR and H&E staining of liver): compared with control group without administration; for Serum ALT: versus before administration. The method, then:
In order to study the effect of the polypeptide compounds of the present invention in hepatic fibrosis associated with viral hepatitis, the polypeptide compounds of the present invention were used for hepatic fibrosis of HBV-infected humanized mouse. […] The specific steps are shown as follows:
Forty newborn NOD-scid IL-2Rγ-/- (NIKO) mice were bred.
These mice were injected with human stem cells for humanization (2 weeks).
Referring to FIG. 10, blood samples were taken to determine the humanization level by flow cytometry. All the mice used in the experiment expressed humanization according to in vivo concentrations of CD4 and CD8.
The mice were divided into 8 groups, fed with high-fat diet and infected with HBV (1 week).
The development of fibrosis in mice was monitored (8-10 weeks).
The polypeptide compounds 2, 5, 11, 15, 20, 23 and 25 were selected, which were stored at -20° C.
The above 40 mice were divided into 8 groups for injection treatment, with grouping and injection administration as follows: blank model control group (CTR), physiological saline, intraperitoneal injection, n=5. • 1) Administration group, polypeptide compound 2, 40 ug/Kg, intraperitoneal injection, n=5. • 2) Administration group, polypeptide compound 5, 40 ug/Kg, intraperitoneal injection, n=5. • 3) Administration group, polypeptide compound 11, 40 ug/Kg, intraperitoneal injection, n=5. • 4) Administration group, polypeptide compound 15, 40 ug/Kg, intraperitoneal injection, n=5. • 5) Administration group, polypeptide compound 20, 40 ug/Kg, intraperitoneal injection, n=5. • 6) Administration group, polypeptide compound 23, 40 ug/Kg, intraperitoneal injection, n=5. • 7) Administration group, polypeptide compound 25, 40 ug/Kg, intraperitoneal injection, n=5.
They were injected once every other day for 3 weeks.
After 3 weeks of administration, the mice were sacrificed to take samples for subsequent bioassay experiments. The serum samples from the mice were used for ALT and human IFNγ tests. Paraffin sections were prepared from partial liver tissues of the mice and stained with hematoxylin-eosin (H&E), […]/Sirius red (FG/SR) and immunohistochemical fluorescence (α-SMA), and statistics were made with Image-pro plus, Graph pad and similar software.
In the HBV induced hepatic fibrosis model, its characteristics are: inflammatory cell infiltration around the central vein area, hydropic degeneration of hepatocytes, and increased accumulation of collagen fibers in the portal area and the hepatic interlobular septum. After 3 weeks of administration, the mice were sacrificed to take samples. Blood was taken from the retrobulbar vein for detection of serological indicators, and liver tissues were taken for pathological analysis.

Assay [2] concerns Hepatic stellate cell strain LX-2. The assay is described as follows: In vitro effect on expression of LX-2 cell activation marker α-SMA (Western Blot, β-actin reference). As to conditions: LX-2 cells, 10.0 uM, 48 hours, negative control = 100%. The format is cell-based. The text has this: Hepatic stellate cell strain LX-2 (from China Center for Type Culture Collection, Shanghai) was selected to study and observe the effects of polypeptide compounds 1-25 on the expression level of LX-2 cell activation marker α-smooth muscle actin (α-SMA). The control group was given the same volume of Dulbecco’s modified Eagle medium (DMEM) (from Gibco, United States), and β-actin (from TransGen Biotech) as the endogenous reference, wherein, α-SMA is a symbolic feature that distinguishes […] from myofibroblasts.
Hepatic stellate cell LX-2 was laid on 35 mm cell culture plate, cultured with DMEM (high glucose)+10% FBS+1% double-antibody culture medium (Thermo Fisher), placed overnight when the cells grew to 70% convergence at 37° C. under the condition of 5% CO2 without serum, and treated with the above GLP-1R/GCGR dual target agonist polypeptide derivatives (namely, polypeptide compounds 1-25) (dissolved in PBS) for 48 hours from the next morning to extract cell protein, and then Western Blot was performed with β-actin as endogenous reference to analyze the expression levels of α-SMA and β-actin by gray-scale analysis using Image J 1.50i. PBS with the same volume as that in experimental group was added in negative control.
The above polypeptide compounds 1-25 with a concentration of 10.0 µM were added, showing that they could reduce the expression of α-SMA at the concentration of 10.0 µM; and the negative control had no effect on the expression of α-SMA (referring to Table 2).
The integrated gray scale of α-SMA/β-actin in the negative control group was considered to be 100% to analyze the in vitro inhibitory activity on hepatic fibrosis by tested polypeptides.

Starred links: 1 amine or outer side, 2 acyl side, 3 side chain; linkers in the order of their positions; H or OH if unused. Non-standard residues stand in square brackets, D forms with d. Groups on a side chain read outwards from the residue. Primed or numbered codes have the meaning given here. No end group written: not given here. *: point of attachment. C18 diacid = O=C(O)CCCCCCCCCCCCCCCCC(=O)*; C16 diacid = O=C(O)CCCCCCCCCCCCCCC(=O)*; γGlu = O=C(O)[C@H](CCC(=O)[*:2])N[*:1]; Stearoyl = CCCCCCCCCCCCCCCCCC(=O)*; Palmitoyl = CCCCCCCCCCCCCCCC(=O)*; PEG2′ = not defined here; Aib = CC(C)(N)C(=O)O

In the case of “His-(D-Ser)-Gln-Gly-Thr-Phe-Thr-Ser-Asp-Tyr-Ser-Lys-Tyr-Leu-Asp-Glu-Lys(PEG2-PEG2-γGlu-CO(CH2)16CO2H)-Arg- Ala-Gln-Asp-Phe-Val-Gln-Trp-Leu-Met-Asn-Thr-Gly-Gly-Pro-Ser-Ser-Gly-Ala-Pro-Pro-Pro-Ser-NH2 (H[dS]QGTFTSDYSKYLDEK([PEG2′-PEG2′-γGlu-C18 diacid])RAQDFVQWLMNTGGPSSGAPPPS-NH2) [Compound 2]”, in assay [1], the “α-SMA expression in liver tissues (IF staining)” value (shortened to “α-SMA expression”) is “significantly inhibited”; the “Accumulation of collagen fibers (FG/SR staining of liver)” value (“Accumulation of collagen fibers” below) is reported as “significantly inhibited the accumulation of collagen fibers”; the “Hepatic fibrosis and inflammation level (FG/SR and H&E staining of liver)” value (shortened to “Hepatic fibrosis and inflammation level”) is “decreased the hepatic fibrosis and inflammation level”; the “Serum ALT” value was “decreased from that before administration”. In addition, in assay [2], the “Relative expression of α-SMA (α-SMA/β-actin, %)” value turned out to be 34.65%.
Consider “His-(D-Ser)-Gln-Gly-Thr-Phe-Thr-Ser-Asp-Tyr-Ser-Lys-Tyr-Leu-Asp-Glu-Lys-Ala-Ala-Lys(PEG2-PEG2-yGlu- CO(CH2)16CH3)-Glu-Phe-Ile-Glu-Trp-Leu-Leu-Arg-Gly-Gly- Gly-Pro-Ser-Ser-Gly-Ala-Pro-Pro-Pro-Ser-NH2 (H[dS]QGTFTSDYSKYLDEKAAK([PEG2′-PEG2′-γGlu-Stearoyl])EFIEWLLRGGGPSSGAPPPS-NH2) [Compound 11]”, for which, in assay [1], the “α-SMA expression” value is “significantly inhibited”; the “Accumulation of collagen fibers” value is recorded as “significantly inhibited the accumulation of collagen fibers”; the “Hepatic fibrosis and inflammation level” value is “decreased the hepatic fibrosis and inflammation level”; the “Serum ALT” value was “decreased from that before administration”. Further, the “Relative expression of α-SMA (α-SMA/β-actin, %)” value in assay [2] is recorded as 35.78%.
On to “His-(D-Ser)-Gln-Gly-Thr-Phe-Thr-Ser-Asp-Tyr-Ser-Lys-Tyr-Leu-Asp-Glu-Lys-Ala-Ala-Lys(PEG2-PEG2-γGlu- CO(CH2)14CH3)-Glu-Phe-Ile-Glu-Trp-Leu-Leu-Asn-Gly-Gly- Gly-Pro-Ser-Ser-Gly-Ala-Pro-Pro-Pro-Ser-NH2 (H[dS]QGTFTSDYSKYLDEKAAK([PEG2′-PEG2′-γGlu-Palmitoyl])EFIEWLLNGGGPSSGAPPPS-NH2) [Compound 15]”, for which, in assay [1], the “α-SMA expression” value is recorded as “significantly inhibited”; the “Accumulation of collagen fibers” value was “significantly inhibited the accumulation of collagen fibers”; the “Hepatic fibrosis and inflammation level” value is “decreased the hepatic fibrosis and inflammation level”; the “Serum ALT” value was “decreased from that before administration”. Further, the “Relative expression of α-SMA (α-SMA/β-actin, %)” value in assay [2] is 37.25%.
Consider “His-(D-Ser)-Gln-Gly-Thr-Phe-Thr-Ser-Asp-Tyr-Ser-Lys-Tyr-Leu-Asp-Lys(PEG2-PEG2-CO(CH2)14CH3)-Arg-Arg-Ala-Gln- Asp-Phe-Val-Gln-Trp-Leu-Leu-Asn-Thr-Gly-Gly-Pro-Ser-Ser-Gly-Ala-Pro-Pro-Pro-Ser-NH2 (H[dS]QGTFTSDYSKYLDK([PEG2′-PEG2′-Palmitoyl])RRAQDFVQWLLNTGGPSSGAPPPS-NH2) [Compound 25]”, for which, in assay [1], the “α-SMA expression” value is “significantly inhibited”; the “Accumulation of collagen fibers” value was “significantly inhibited the accumulation of collagen fibers”; the “Hepatic fibrosis and inflammation level” value was “decreased the hepatic fibrosis and inflammation level”; the “Serum ALT” value is listed as “decreased from that before administration”. In addition, in assay [2], the “Relative expression of α-SMA (α-SMA/β-actin, %)” value is given as 39.17%.
Consider “His-(D-Ser)-Gln-Gly-Thr-Phe-Thr-Ser-Asp-Tyr-Ser-Lys-Tyr-Leu-Asp-Lys(PEG2-PEG2-yGlu-CO(CH2)14CH3)-Arg-Arg-Ala- Gln-Asp-Phe-Val-Gln-Trp-Leu-Nle-Asn-Thr-Gly-Gly-Pro-Ser-Ser-Gly-Ala-Pro-Pro-Pro-Ser-NH2 (HXQGTFTSDYSKYLDKRRAQDFVQWLXNTGGPSSGAPPPS; D-Ser; Nle; PEG2-PEG2-γGlu-palmitoyl lipidation; C-terminal amide; (2)..(2) Xaa=D-Ser; (16)..(16) A side chain of Lys is linked to -PEG2-PEG2-AGlu-CO(CH2)14CH3; (27)..(27) Xaa=Nle) [Compound 20]”, for which, in assay [1], the “α-SMA expression” value is on record as “significantly inhibited”; the “Accumulation of collagen fibers” value is reported as “significantly inhibited the accumulation of collagen fibers”; the “Hepatic fibrosis and inflammation level” value was “decreased the hepatic fibrosis and inflammation level”; the “Serum ALT” value was “decreased from that before administration”. Moreover, the “Relative expression of α-SMA (α-SMA/β-actin, %)” value in assay [2] is 32.58%.
For “His-(D-Ser)-Gln-Gly-Thr-Phe-Thr-Ser-Asp-Tyr-Ser-Lys-Tyr-Leu-Asp-Lys(PEG2-PEG2-γGlu-CO(CH2)14CH3)-Arg-Arg-Ala- Gln-Asp-Phe-Val-Gln-Trp-Leu-Leu-Asn-Thr-Gly-Gly-Pro-Ser-Ser-Gly-Ala-Pro-Pro-Pro-Ser-NH2 (H[dS]QGTFTSDYSKYLDK([PEG2′-PEG2′-γGlu-Palmitoyl])RRAQDFVQWLLNTGGPSSGAPPPS-NH2) [Compound 23]”, in assay [1], the “α-SMA expression” value was “significantly inhibited”; the “Accumulation of collagen fibers” value was “significantly inhibited the accumulation of collagen fibers”; the “Hepatic fibrosis and inflammation level” value is “decreased the hepatic fibrosis and inflammation level”; the “Serum ALT” value is listed as “decreased from that before administration”. Besides, the “Relative expression of α-SMA (α-SMA/β-actin, %)” value in assay [2] came out at 36.15%.
Consider “His-Aib-Gln-Gly-Thr-Phe-Thr-Ser-Asp-Lys(PEG2-PEG2-yGlu- CO(CH2)16CO2H)-Ser-Lys-Tyr-Leu-Asp-Glu-Arg-Arg-Ala- Gln-Asp-Phe-Val-Gln-Trp-Leu-Leu-Asp-Gly-Gly-Gly-Pro-Ser-Ser-Gly-Ala-Pro-Pro-Pro-Ser-NH2 (H[Aib]QGTFTSDK([PEG2′-PEG2′-γGlu-C18 diacid])SKYLDERRAQDFVQWLLDGGGPSSGAPPPS-NH2) [Compound 5]”, for which, in assay [1], the “α-SMA expression” value was “significantly inhibited”; the “Accumulation of collagen fibers” value is listed as “significantly inhibited the accumulation of collagen fibers”; the “Hepatic fibrosis and inflammation level” value is “decreased the hepatic fibrosis and inflammation level”; the “Serum ALT” value was “decreased from that before administration”. In addition, the “Relative expression of α-SMA (α-SMA/β-actin, %)” value in assay [2] amounted to 37.04%.
“His-Aib-Gln-Gly-Thr-Phe-Thr-Ser-Asp-Lys(PEG2-PEG2-γGlu- CO(CH2)14CO2H)-Ser-Lys-Tyr-Leu-Asp-Glu-Arg-Arg-Ala- Gln-Asp-Phe-Val-Gln-Trp-Leu-Leu-Asp-Gly-Gly-Gly-Pro-Ser-Ser-Gly-Ala-Pro-Pro-Pro-Ser-NH2 (H[Aib]QGTFTSDK([PEG2′-PEG2′-γGlu-C16 diacid])SKYLDERRAQDFVQWLLDGGGPSSGAPPPS-NH2) [Compound 3]”: the “Relative expression of α-SMA (α-SMA/β-actin, %)” value in assay [2] was 45.28%.
